# According to PubChem BioAssay (NCI):
# “And” between values parts separate entries of the source, which are not always exact repeats. Equal entries are not always repeated.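 Protocol summary: plate cells (96-well), add compound at 5 concentrations, incubate 48 h, interpolate endpoints linearly. Here, GI50 denotes the concentration required for 50% inhibition of growth. TGI is the concentration that stops growth completely.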
# Legend:
# Experiment in all cases: DTP human tumour cell line panel, 48 h
# SK-MEL-28 melanoma = test system: SK-MEL-28 melanoma
# SNB-75 CNS = test system: SNB-75 CNS
# LOX IMVI melanoma = test system: LOX IMVI melanoma
# SK-MEL-5 melanoma = test system: SK-MEL-5 melanoma
# SW-620 colon = test system: SW-620 colon
# CAKI-1 renal = test system: CAKI-1 renal
# OVCAR-8 ovarian = test system: OVCAR-8 ovarian
# RXF 393 renal = test system: RXF 393 renal
# RPMI-8226 leukemia = test system: RPMI-8226 leukemia
# SF-295 CNS = test system: SF-295 CNS
SMILES,TGI (SK-MEL-28 melanoma) [µM],TGI (SNB-75 CNS) [µM],TGI (LOX IMVI melanoma) [µM],TGI (SK-MEL-5 melanoma) [µM],TGI (SW-620 colon) [µM],TGI (CAKI-1 renal) [µM],TGI (OVCAR-8 ovarian) [µM],TGI (RXF 393 renal) [µM],TGI (RPMI-8226 leukemia) [µM],TGI (SF-295 CNS),GI50 (SNB-75 CNS) [nM],GI50 (LOX IMVI melanoma) [µM],GI50 (SW-620 colon) [µM],GI50 (CAKI-1 renal) [µM],GI50 (OVCAR-8 ovarian) [µM],GI50 (RXF 393 renal) [nM],GI50 (RPMI-8226 leukemia) [nM],GI50 (SF-295 CNS) [µM],GI50 (SK-MEL-28 melanoma) [µM],GI50 (SK-MEL-5 melanoma) [µM]
Cc1ccc2ccc3ccc(C)nc3c2n1,> 100,> 100,> 100,> 100,> 100,> 100,> 100,> 100,> 100,> 100 µM,,,,,,,,,,
Nc1cccc2c1C1=NNC(=O)CC1C2 (stereo not given),> 100,> 100,> 100,> 100,> 100,> 100,> 100,> 100,> 100,> 100 µM,,,,,,,,,,
CNCCCNC1(c2cc3ccccc3s2)CCCCC1,3.91,19.5,9.94,5.68,26.3,22.1,28.4,12.2,6.18,27.5 µM,,,,,,,,,,
N#Cc1c(-c2cccc(Cl)c2)cc(-c2ccc(Cl)cc2)nc1N,,,31.5,30.1,34.2,86,70.7,32.3,48,32.5 µM,,,,,,,,,,
CC(C)(O)CO/N=C1\C(c2c(O)[nH]c3ccccc23)=Nc2ccccc21,> 46.2,9.72,> 24.3,2.28,> 86.4,2.32,> 44.4,2.48,> 31.6,18.4 µM,,,,,,,,,,
Cc1c2cc[n+](C)cc2c(C)c2c1[nH]c1ccc(Cl)cc12,16.5,1.05,77.8,5.99,19.4,53.4,15.5,19.1,> 95.6,4.37 µM,,,,,,,,,,
CC1=NN(c2cccc(Cl)c2)C(=N/c2nc3ccccc3s2)/C1=C\c1cccs1,> 100,> 100,> 100,> 100,> 100,> 100,> 100,> 100,32.5,> 100 µM,,,,,,,,,,
C[C@H](N[C@H]1CCC[C@]1(O)C#Cc1ccc2c(c1)OCO2)c1ccccc1,> 25,> 25,> 25,> 25,,> 25,> 25,> 25,16.9,> 25 µM,,,,,,,,,,
C[C@@H](CO)C1=CC(C#C[Si](C)(C)C)N(C(=O)Oc2ccccc2)c2ccccc21 (stereo not given in full),36.3,36.1,32.4,30.5,> 100,56.8,35,20,90.4,28.1 µM,,,,,,,,,,
c1ccc2sc(C3(N4CCC5(CC4)OCCO5)CCCCC3)cc2c1,> 100,> 100,> 100,> 100,> 100,> 100,> 100,> 100,> 100,> 100 µM,,,,,,,,,,
C=Cc1cc(OC)c2c(c1)c(=O)oc1c2cc(OC)c2c(O)ccc(C3OC(C)C(O)C(C)(O)C3O)c21 (stereo not given),,,,,,0.0916,,,,0.0099 µM and 0.0593 µM,0.41,0.000281,0.000502,0.00224,0.000476,0.174,0.432,0.000699,,
Cc1c(NC(=O)c2cc([N+](=O)[O-])cc([N+](=O)[O-])c2)c(=O)n(-c2ccccc2)n1C,> 100,,> 100,> 100,> 100,> 100,> 100,> 100,> 100,,,,,,,,,,,
O=C(Nc1cccc([N+](=O)[O-])c1)C(=O)C(C(=O)c1ccccc1F)C1OC(=O)C2C=CC=CC21 (stereo not given),> 100,84.9,51.7,> 100,> 100,> 100,> 100,48.6,> 100,> 100 µM,,,,,,,,,,
N#CCCOCN(CO)c1nc(N(CO)COCCC#N)nc(N(CO)COCCC#N)n1,38.8,,> 100,,29.5,,34.7,38.4,56.1,43.7 µM,,,,,,,,,,
O=C(Nc1sccc1S(=O)(=O)c1ccc(Cl)cc1)c1ccccc1,> 100,> 100,> 100,> 100,> 100,> 100,> 100,> 100,> 100,> 100 µM,,,,,,,,,,
O=C1/C(=C/c2ccc(Cl)cc2)N=C(c2ccccc2)N1c1nc2c(Cl)cc(Cl)cc2s1,> 100,64.9,53.4,57.9,> 100,> 100,> 100,62,> 100,> 100 µM,,,,,,,,,,
COc1cc2c(cc1OC)C1Cc3cc(OC)c(OC)cc3C(C2)O1,> 100,> 100,> 100,,> 100,> 100,> 100,> 100,> 100,> 100 µM,,,,,,,,,,
O=C(NCCNc1nccc(-c2c(-c3cccc(O)c3)nc3sccn23)n1)Nc1cccc(C(F)(F)F)c1,,12.7,26.2,8.43,13.4,50.5,11,5.1,5.46,29.7 µM,2500,4.05,3.84,14.2,3.56,2410,2520,4.16,2.68,2.62
CC(=O)OC[C@@]1(C)[C@@H]2[C@@H]3[C@@]4(CO[C@]3(C)C(=O)[C@@]3(O)C[C@H](C)[C@H](OC(C)=O)[C@@H]3[C@H]4OC(C)=O)[C@H](OC(=O)c3ccccc3)C[C@@H]21,> 100,> 100,> 100,> 100,> 100,> 100,> 100,> 100,> 100,> 100 µM,,,,,,,,,,
CNS(=O)(=O)c1ccc2[nH]c(O)c(C3=Nc4ccccc4C3=O)c2c1,> 100,> 100,> 100,> 100,> 100,> 100,,> 100,> 100,> 100 µM,,,,,,,,,,
COc1cc(NC(=O)CSc2nc3ccccc3c(=O)n2CCc2ccccc2)cc(OC)c1OC,,11,> 100,,,,> 100,3.69,,15.3 µM,2230,4.11,,,2.7,1570,,3.21,,
CCCC1=C(C(=O)OCC)C(c2ccccc2OC)C(C#N)=C(N)O1 (stereo not given),79.4,> 100,> 100,64.7,> 100,> 100,> 100,> 100,32.2,> 100 µM,32200,29.9,27.8,57.5,43.8,46500,13300,84,26.3,23.9
NC(=O)Nc1ccc(C(=O)NCCCNC(=O)c2ccc(NC(N)=O)cc2)cc1,> 100,> 100,> 100,> 100,> 100,> 100,> 100,> 100,> 100,,,,,,,,,,,
CSc1ccc(-c2cc(-c3nc4ccccc4[nH]3)nc(N)c2C#N)cc1,53.2,57.8,44,29,> 100,54.4,> 100,24.7,77.2,53 µM,,,,,,,,,,
O=C1C(c2c(O)[nH]c3ccccc23)=Nc2ccc(Br)cc21,> 100,34.9,> 100,> 100,> 100,> 100,49.4,31,> 100,89.6 µM,,,,,,,,,,
Cc1nc2c(O)cc3c4c(n(Cc5ccccc5)c3c2nc1C)C(=O)CCC4,76.2,,> 100,> 100,> 100,,52.6,32.2,> 100,> 100 µM,,,,,,,,,,
CC(=O)N1CC(=O)NC1=S,> 100,> 100,> 100,> 100,> 100,> 100,> 100,,> 100,> 100 µM,,,,,,,,,,
O=C1C(=c2cc3c(c4ccccc24)=NC24CCCCC2C(c2ccccc2)C=C(c2ccccc2)N34)C(=O)c2ccccc21 (stereo not given),> 100,> 100,> 100,> 100,> 100,> 100,> 100,49,53.8,> 100 µM,,,,,,,,,,
